Earlier results on two compounds are cited in US7981605B2, “Epidermal growth factor receptor mutations” (Amgen Inc., priority 2005, dated 2011).

One series deals with A431 tumor xenografts. As to conditions: athymic mice.
For series [1], the system named is NSCLC tumors with EGFr mutations. As to conditions: deletions in amino acids 746-759 region, L858R, L861Q, G719C, G719S, R776C/L858R (Lynch, Paez, Pao 2004).

On to “panitumumab: a human IgG2 monoclonal antibody against human EGFr; human anti-EGFr antibody (Amgen)”, for which the “formation of A431 xenografts” value in the series with A431 tumor xenografts is listed as “preventing the formation of human epidermoid carcinoma A431 xenografts”.

Turning to `C#Cc1cccc(Nc2ncnc3cc(OCCOC)c(OCCOC)cc23)c1` [erlotinib, N-(3-ethynylphenyl)-6,7-bis(2-methoxyethoxy)-4-quinazolinamine], in series [1], the “sensitivity of NSCLC tumors with EGFr mutations” value is recorded as “display sensitivity”.
